Laboratory results: US11059818B2, “Triazolopyridine inhibitors of myeloperoxidase” (BRISTOL-MYERS SQUIBB COMPANY, priority 2016, dated 2021)

Tests used:
myeloperoxidase [1] = target: T1, myeloperoxidase (Homo sapiens (Human), UniProt P05164); experiment: MPO Chlorination Assay (APF Assay); assay type: biochemical; conditions: potency range class
Description: (§1) [formula] where A=minimal Y value (activity level of inhibited sample), B=maximal Y value (activity level of uninhibited sample), C=Log IC50, D=Hill Slope, x=concentration of inhibitor. MPO Chlorination Assay (APF Assay)
MPO chlorination activity was measured in 100 mM KPi (pH 7.4) by utilizing the non-fluorescent reagent Aminophenyl fluorescein (APF, Invitrogen Cat. #A36003). APF is cleaved by (—OCl) to yield the fluorescent compound fluorescein. Reactions were carried out in 50 μL total volume by adding a 25 μL mixture of 200 pM myeloperoxidase and 120 mM NaCl to 100 nL inhibitor in 100% DMSO in a 384 well, non-binding surface clear bottom plate (Corning #3655). Enzyme, inhibitor, and chloride were preincubated for ten minutes at rt.
After the ten minute preincubation, 25 μL of an APF mixture containing […], 120 mM NaCl and 10 μM H2O2 was added to the plate using the internal dispensing system of a Hammatsu FDSS 6000. Kinetic determinations were carried out immediately on the FDSS 6000 (3 minute kinetic read, 1 read every second, ex: 485 nm, em: 535 nm). IC50 values for inhibitors were calculated by taking the slope of the linear portion of the kinetic measurement (20 seconds to ˜80-120 secs). […]
[formula] where A=minimal Y value (activity level of inhibited sample), B=maximal Y value (activity level of uninhibited sample), C=Log IC50, D=Hill Slope, x=concentration of inhibitor.

myeloperoxidase [2] = target: T1, myeloperoxidase; experiment: MPO Peroxidation Assay (Amplex Red Assay); assay type: biochemical; conditions: potency range class
Description: MPO Peroxidation Assay (Amplex Red Assay)
MPO peroxidation activity was measured in 100 mM KPi (pH 7.4) by utilizing the non-fluorescent reagent Amplex Red (Invitrogen Cat. #A12222) which can be oxidized to the highly fluorescent resorufin. Amplex Red is oxidized by the peroxidase action of MPO to resorufin. Reactions were carried out in 50 μL total volume by adding a 25 μL mixture of 200 pM myeloperoxidase and 40 nM H2O2(Sigma #349887) to 100 nL inhibitor in 100% DMSO in a 384 well Perkin Elmer Optiplate. Enzyme and compound were preincubated for ten minutes at rt.
After the ten minute preincubation, 25 μL of an Amplex Red mixture containing 200 μM Amplex Red and 10 mM H2O2 was added to the plate. Kinetic determinations were carried out immediately on a Perkin Elmer Envision (15 minute kinetic read, Ex: 535 nm, Em: 590 nm).
IC50 values were calculated by determining the slope of the linear portion of the kinetic trace (180-540 secs), and using that calculated slope to determine % inhibition occurring at each concentration of inhibitor using the following equation:
as §1

T1 sequence (P05164 49-745): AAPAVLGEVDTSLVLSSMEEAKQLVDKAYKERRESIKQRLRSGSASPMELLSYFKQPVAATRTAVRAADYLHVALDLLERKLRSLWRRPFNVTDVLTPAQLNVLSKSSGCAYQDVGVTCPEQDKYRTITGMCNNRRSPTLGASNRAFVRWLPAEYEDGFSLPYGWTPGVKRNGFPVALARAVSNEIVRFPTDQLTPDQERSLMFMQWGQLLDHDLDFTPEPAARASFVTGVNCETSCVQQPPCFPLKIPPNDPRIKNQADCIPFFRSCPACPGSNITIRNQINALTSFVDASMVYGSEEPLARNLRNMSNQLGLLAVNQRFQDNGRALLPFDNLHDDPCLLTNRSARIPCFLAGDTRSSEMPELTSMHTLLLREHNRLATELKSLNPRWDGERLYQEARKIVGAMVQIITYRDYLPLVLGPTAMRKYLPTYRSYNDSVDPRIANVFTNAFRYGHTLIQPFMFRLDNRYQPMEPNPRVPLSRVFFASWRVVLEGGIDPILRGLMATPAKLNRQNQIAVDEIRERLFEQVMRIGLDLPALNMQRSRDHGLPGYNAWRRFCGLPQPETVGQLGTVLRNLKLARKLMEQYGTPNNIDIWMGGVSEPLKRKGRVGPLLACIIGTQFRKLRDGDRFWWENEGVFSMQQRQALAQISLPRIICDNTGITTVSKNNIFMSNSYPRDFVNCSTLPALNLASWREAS

| SMILES | IC50 (myeloperoxidase [1]) [nM] | IC50 (myeloperoxidase [2]) [nM] |
| --- | --- | --- |
| Nc1cc(C(CCN[C@H]2CC[C@H](c3ccccc3)CC2)c2cnn(C3CCC(F)(F)C3)c2)c2nn[nH]c2n1 (relative stereo) [Example 27, 7-{1-[1-(3,3-Difluorocyclopentyl)-1H-pyrazol-4-yl]-3-{[trans-4-phenylcyclohexyl]amino}propyl}-3H-[1,2,3]triazolo[4,5-b]pyridin-5-amine] | 1 to 100 | 101 to 999 |
| Nc1cc(C(CCC(c2ccccc2)c2ccccc2)c2cnn(Cc3ccc4c(c3)CCNC4)c2)c2nn[nH]c2n1 (centres unmarked) [Example 5, 7-{4,4-diphenyl-1-[1-(1,2,3,4-tetrahydroisoquinolin-6-ylmethyl)-1H-pyrazol-4-yl]butyl}-3H-[1,2,3]triazolo[4,5-b]pyridin-5-amine] | 1 to 100 | 1000 to 10000 |
| Nc1cc(C(CCCc2ccccc2)c2cnn(Cc3cccnc3)c2)c2nn[nH]c2n1 (centres unmarked) [Example 12, 7-{4-Phenyl-1-[1-(pyridin-3-ylmethyl)-1H-pyrazol-4-yl]butyl}-3H-[1,2,3]triazolo[4,5-b]pyridin-5-amine] |  | 101 to 999 |
| Nc1cc(C(CCCc2ccccc2)c2cnn(Cc3cccc(C4CCNCC4)c3)c2)c2nn[nH]c2n1 (centres unmarked) [Example 13, 7-[4-Phenyl-1-(1-{[3-(piperidin-4-yl)phenyl]methyl}-1H-pyrazol-4-yl)butyl]-3H-[1,2,3]triazolo[4,5-b]pyridin-5-amine] | 1 to 100 | 101 to 999 |
| Nc1cc(C(CCCC2NCCc3ccccc32)c2cnn(Cc3ccccc3)c2)c2nn[nH]c2n1 (centres unmarked) [Example 14, 7-[1-(1-Benzyl-1H-pyrazol-4-yl)-4-(1,2,3,4-tetrahydroisoquinolin-1-yl)butyl]-3H-[1,2,3]triazolo[4,5-b]pyridin-5-amine] | 1 to 100 | 101 to 999 |
| Cn1cc(C(CCNCc2ccccc2)c2cc(N)nc3[nH]nnc23)cn1 (centres unmarked) [Example 15, 7-[3-(Benzylamino)-1-(1-methyl-1H-pyrazol-4-yl)propyl]-3H-[1,2,3]triazolo[4,5-b]pyridin-5-amine] | 1000 to 10000 | 101 to 999 |
| Nc1cc(C(CCNC2CCC(c3ccccc3)CC2)c2cnn(Cc3ccccc3)c2)c2nn[nH]c2n1 (centres unmarked) [Example 16, 7-[1-(1-Benzyl-1H-pyrazol-4-yl)-3-[(4-phenylcyclohexyl)amino]propyl]-3H-[1,2,3]triazolo[4,5-b]pyridin-5-amine] | 1 to 100 | 101 to 999 |
| Nc1cc(C(CCNC2CCc3ccccc32)c2cnn(Cc3ccccc3)c2)c2nn[nH]c2n1 (centres unmarked) [Example 17, 7-[1-(1-Benzyl-1H-pyrazol-4-yl)-3-[(2,3-dihydro-1H-inden-1-yl)amino]propyl]-3H-[1,2,3]triazolo[4,5-b]pyridin-5-amine] | 1 to 100 | 101 to 999 |
| Nc1cc(C(CCN[C@H]2CC[C@H](c3ccccc3)CC2)c2cnn(Cc3ccccc3)c2)c2nn[nH]c2n1 (some centres unmarked) [Example 18, 7-[1-(1-Benzyl-1H-pyrazol-4-yl)-3-{[(1r,4r)-4-phenylcyclohexyl]-amino}propyl]-3H-[1,2,3]triazolo 4,5-b pyridin-5-amine] | 1 to 100 | 1 to 100 |
| Nc1cc(C(CCN[C@H]2CC[C@H](c3ccccc3)CC2)c2cnn(Cc3ccc(Cl)cc3)c2)c2nn[nH]c2n1 (stereo partly drawn) [Example 19, 7-(1-{1-[(4-Chlorophenyl)methyl]-1H-pyrazol-4-yl}-3-{[trans-4-phenylcyclohexyl]amino}propyl)-3H-[1,2,3]triazolo[4,5-b]pyridin-5-amine] | 1 to 100 | 101 to 999 |
| Nc1cc(C(CCN[C@H]2CC[C@H](c3ccccc3)CC2)c2cnn(C3CCC3)c2)c2nn[nH]c2n1 (some centres unmarked) [Example 20, 7-[1-(1-Cyclobutyl-1H-pyrazol-4-yl)-3-{[(1r,4r)-4-phenylcyclohexyl]amino}propyl]-3H-[1,2,3]triazolo[4,5-b]pyridin-5-amine] | 1 to 100 | 101 to 999 |

More lines, now with the values ahead:

| IC50 (myeloperoxidase [1]) [nM] | IC50 (myeloperoxidase [2]) [nM] | SMILES |
| --- | --- | --- |
| 1 to 100 | 1000 to 10000 | Nc1cc(C(CCCc2ccccc2)c2cnn(Cc3ccc4c(c3)CCNC4)c2)c2nn[nH]c2n1 (centres unmarked) [Example 1, 7-(4-phenyl-1-(1-((1,2,3,4-tetrahydroisoquinolin-6-yl)methyl)-1H-pyrazol-4-yl)butyl)-3H-[1,2,3]triazolo[4,5-b]pyridin-5-amine] |
| 101 to 999 | 101 to 999 | CCCC(c1cnn(Cc2ccc3c(c2)CCNC3)c1)c1cc(N)nc2[nH]nnc12 (centres unmarked) [Example 2, 7-{1-[1-(1,2,3,4-tetrahydroisoquinolin-6-ylmethyl)-1H-pyrazol-4-yl]butyl}-3H-[1,2,3]triazolo[4,5-b]pyridin-5-amine] |
| 101 to 999 | 101 to 999 | CC(c1cnn(Cc2ccc3c(c2)CCNC3)c1)c1cc(N)nc2[nH]nnc12 (centres unmarked) [Example 3, 7-{1-[1-(1,2,3,4-tetrahydroisoquinolin-6-ylmethyl)-1H-pyrazol-4-yl]ethyl}-3H-[1,2,3]triazolo[4,5-b]pyridin-5-amine] |
| 101 to 999 | 1000 to 10000 | Nc1cc(C(CCOCc2ccccc2)c2cnn(Cc3ccc4c(c3)CCNC4)c2)c2nn[nH]c2n1 (centres unmarked) [Example 4, 7-(3-(benzyloxy)-1-(1-((1,2,3,4-tetrahydroisoquinolin-6-yl)methyl)-1H-pyrazol-4-yl)propyl)-3H-[1,2,3]triazolo[4,5-b]pyridin-5-amine] |
| 1 to 100 | 101 to 999 | Nc1cc(C(CCCC2CCCCC2)c2cnn(Cc3ccc4c(c3)CCNC4)c2)c2nn[nH]c2n1 (centres unmarked) [Example 6, 7-{4-cyclohexyl-1-[1-(1,2,3,4-tetrahydroisoquinolin-6-ylmethyl)-1H-pyrazol-4-yl]butyl}-3H-[1,2,3]triazolo[4,5-b]pyridin-5-amine] |
| 1 to 100 | 101 to 999 | Nc1cc(C(CCCc2ccc3ccccc3c2)c2cnn(Cc3ccc4c(c3)CCNC4)c2)c2nn[nH]c2n1 (centres unmarked) [Example 7, 7-[4-(naphthalen-2-yl)-1-[1-(1,2,3,4-tetrahydroisoquinolin-6-ylmethyl)-1H-pyrazol-4-yl]butyl]-3H-[1,2,3]triazolo[4,5-b]pyridin-5-amine] |
| 101 to 999 | 1000 to 10000 | Nc1cc(C(CCCC2CCc3ccccc32)c2cnn(Cc3ccc4c(c3)CCNC4)c2)c2nn[nH]c2n1 (centres unmarked) [Example 8, 7-[4-(2,3-dihydro-1H-inden-1-yl)-1-[1-(1,2,3,4-tetrahydroisoquinolin-6-ylmethyl)-1H-pyrazol-4-yl]butyl]-3H-[1,2,3]triazolo[4,5-b]pyridin-5-amine] |
| 1 to 100 | 1000 to 10000 | Nc1cc(C(CCCc2cccc3ccccc23)c2cnn(Cc3ccc4c(c3)CCNC4)c2)c2nn[nH]c2n1 (centres unmarked) [Example 9, 7-[4-(Naphthalen-1-yl)-1-[1-(1,2,3,4-tetrahydroisoquinolin-6-ylmethyl)-1H-pyrazol-4-yl]butyl]-3H-[1,2,3]triazolo[4,5-b]pyridin-5-amine] |
| 1000 to 10000 | 101 to 999 | Nc1cc(C(CCC2CCOCC2)c2cnn(Cc3ccc4c(c3)CCNC4)c2)c2nn[nH]c2n1 (centres unmarked) [Example 10, 7-[3-(Oxan-4-yl)-1-[1-(1,2,3,4-tetrahydroisoquinolin-6-ylmethyl)-1H-pyrazol-4-yl]propyl]-3H-[1,2,3]triazolo[4,5-b]pyridin-5-amine] |
| 101 to 999 | 101 to 999 | Nc1cc(C(CCOc2ccccc2)c2cnn(Cc3ccc4c(c3)CCNC4)c2)c2nn[nH]c2n1 (centres unmarked) [Example 11, 7-{3-Phenoxy-1-[1-(1,2,3,4-tetrahydroisoquinolin-6-ylmethyl)-1H-pyrazol-4-yl]propyl}-3H-[1,2,3]triazolo[4,5-b]pyridin-5-amine] |
